Reference: patent US8293770B2, “Pyrrolidine derivatives as NK-3 receptor antagonists” (Hoffmann-La Roche Inc., priority 2008, dated 2012)

Molecular target: T1, recombinant human NK3 receptor (Homo sapiens, UniProt P29371)
T1 construct: expressed in transfected cells; host or cells: HEK293 cells (transient expression), membranes
T1 sequence (P29371 1-465): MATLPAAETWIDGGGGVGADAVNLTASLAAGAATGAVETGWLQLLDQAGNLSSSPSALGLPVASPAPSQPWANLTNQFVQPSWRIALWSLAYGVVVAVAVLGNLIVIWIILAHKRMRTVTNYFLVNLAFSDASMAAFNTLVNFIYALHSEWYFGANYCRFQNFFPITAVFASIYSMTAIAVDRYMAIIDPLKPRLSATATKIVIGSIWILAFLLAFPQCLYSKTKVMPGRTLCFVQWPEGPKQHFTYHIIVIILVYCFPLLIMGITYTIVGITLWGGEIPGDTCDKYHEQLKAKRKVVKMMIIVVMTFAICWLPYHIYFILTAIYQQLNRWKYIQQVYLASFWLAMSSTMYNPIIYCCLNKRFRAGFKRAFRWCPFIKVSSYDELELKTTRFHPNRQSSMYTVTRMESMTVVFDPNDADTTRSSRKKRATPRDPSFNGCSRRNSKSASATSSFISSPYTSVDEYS
Assay: [3H]SR142801 competition binding assay
Conditions: hNK3 receptor binding, [3H]SR142801, membranes from HEK293 cells transiently expressing recombinant human NK3 receptor
Method: [^3H]SR142801 competition binding assay
hNK3 receptor binding experiment were performed using [^3H]SR142801 (Catalog No. TRK1035, specific activity: 74.0 Ci/mmol, Amersham, GE Healthcare UK limited, Buckinghamshire, UK) and membrane isolated from HEK293 cells transiently expressing recombinant human NK3 receptor. After thawing, the membrane homogenates were centrifuged at 48,000×g for 10 min at 4° C., the pellets were resuspended in the 50 mM Tris-HCl, 4 mM MnCl2, 1 μM phosphoramidon, 0.1% BSA binding buffer at pH 7.4 to a final assay concentration of 5 μg protein/well. […] At the end of the incubation, membranes were filtered onto unitfilter (96-well white microplate with bonded GF/C filter preincubated 1 h in 0.3% PEI+0.3% BSA, Packard BioScience, Meriden, Conn.) with a Filtermate 196 harvester (Packard BioScience) and washed 4 times with ice-cold 50 mM Tris-HCl, pH 7.4 buffer. Nonspecific binding was measured in the presence of 10 μM SB222200 for both radioligands. The radioactivity on the filter was counted (5 min) on a Packard Top-count microplate scintillation counter with quenching correction after addition of 45 μl of microscint 40 (Canberra Packard S. A., Zürich, Switzerland) and shaking for 1 h. Inhibition curves were fitted according to the Hill equation: y=100/(1+(x/IC50)^nH), where nH=slope factor using Excel-fit 4 software (Microsoft). IC50 values were derived from the inhibition curve and the affinity constant (Ki) values were calculated using the Cheng-Prussoff equation Ki=IC50/(1+[L]/KD) where [L] is the concentration of radioligand and KD is its dissociation constant at the receptor, derived from the saturation isotherm. All experiments were performed in duplicate and the mean±standard error (SEM) of the individual Ki values was calculated.

| Ki [nM] | SMILES |
| --- | --- |
| 20.9 | CN(Cc1ccc(C(F)(F)F)c(F)c1)[C@H]1CN(C(=O)c2ccc(C#N)cc2)C[C@@H]1c1ccc(Cl)c(Cl)c1 (racemic) [Example 6, 4-{(3SR,4RS)-3-(3,4-Dichloro-phenyl)-4-[(3-fluoro-4-trifluoromethyl-benzyl)-methyl-amino]-pyrrolidine-1-carbonyl}-benzonitrile] |
| 47.4 | CN(Cc1ccc(C(F)(F)F)c(F)c1)[C@H]1CN(C(=O)c2cccc(C#N)c2)C[C@@H]1c1ccc(Cl)c(Cl)c1 (racemic) [Example 9, 3-{(3SR,4RS)-3-(3,4-Dichloro-phenyl)-4-[(3-fluoro-4-trifluoromethyl-benzyl)-methyl-amino]-pyrrolidine-1-carbonyl}-benzonitrile] |
| 38.3 | CN(Cc1ccc(C(F)(F)F)c(F)c1)[C@H]1CN(C(=O)c2ccc3c(c2)OCO3)C[C@@H]1c1ccc(Cl)c(Cl)c1 (racemic) [Example 17, Benzo[1,3]dioxol-5-yl-{(3SR,4RS)-3-(3,4-dichloro-phenyl)-4-[(3-fluoro-4-trifluoromethyl-benzyl)-methyl-amino]-pyrrolidin-1-yl}-methanone] |
| 42 | CN(Cc1ccc(C#N)c(F)c1)[C@H]1CN(C(=O)c2ccc(C#N)cc2)C[C@@H]1c1ccc(Cl)c(Cl)c1 (racemic) [Example 18, 4-({[(3RS,4SR)-1-(4-Cyano-benzoyl)-4-(3,4-dichloro-phenyl)-pyrrolidin-3-yl]-methyl-amino}-methyl)-2-fluoro-benzonitrile] |
| 12.9 | CN(Cc1ccc(C(F)(F)F)c(F)c1)[C@H]1CN(C(=O)c2ccc(C#N)cc2F)C[C@@H]1c1ccc(Cl)c(Cl)c1 (racemic) [Example 19, 4-{(3SR,4RS)-3-(3,4-Dichloro-phenyl)-4-[(3-fluoro-4-trifluoromethyl-benzyl)-methyl-amino]-pyrrolidine-1-carbonyl}-3-fluoro-benzonitrile] |
| 41.7 | CN(Cc1ccc(C(F)(F)F)c(F)c1)[C@H]1CN(C(=O)c2cc(S(C)(=O)=O)ccc2F)C[C@@H]1c1ccc(Cl)c(Cl)c1 (racemic) [Example 20, {(3SR,4RS)-3-(3,4-Dichloro-phenyl)-4-[(3-fluoro-4-trifluoromethyl-benzyl)-methyl-amino]-pyrrolidin-1-yl}-(2-fluoro-5-methanesulfonyl-phenyl)-methanone] |
| 30.2 | CN(Cc1ccc(C(F)(F)F)c(F)c1)[C@H]1CN(C(=O)c2ccc(S(C)(=O)=O)cc2)C[C@@H]1c1ccc(Cl)c(Cl)c1 (racemic) [Example 22, {(3SR,4RS)-3-(3,4-Dichloro-phenyl)-4-[(3-fluoro-4-trifluoromethyl-benzyl)-methyl-amino]-pyrrolidin-1-yl}-(4-methanesulfonyl-phenyl)-methanone] |
| 6.6 | Cc1cc(C(=O)N2C[C@H](c3ccc(Cl)c(Cl)c3)[C@@H](N(C)Cc3ccc(C(F)(F)F)c(F)c3)C2)ccc1C#N (racemic) [Example 23, 4-{(3SR,4RS)-3-(3,4-Dichloro-phenyl)-4-[(3-fluoro-4-trifluoromethyl-benzyl)-methyl-amino]-pyrrolidine-1-carbonyl}-2-methyl-benzonitrile] |
| 6.8 | CC(=O)c1ccc(C(=O)N2C[C@H](c3ccc(Cl)c(Cl)c3)[C@@H](N(C)Cc3ccc(C(F)(F)F)c(F)c3)C2)cc1 (racemic) [Example 24, 1-(4-{(3SR,4RS)-3-(3,4-Dichloro-phenyl)-4-[(3-fluoro-4-trifluoromethyl-benzyl)-methyl-amino]-pyrrolidine-1-carbonyl}-phenyl)-ethanone] |
| 15.2 | Cc1ccc(C(=O)N2C[C@H](c3ccc(Cl)c(Cl)c3)[C@@H](N(C)Cc3ccc(C(F)(F)F)c(F)c3)C2)cn1 (racemic) [Example 25, {(3SR,4RS)-3-(3,4-Dichloro-phenyl)-4-[(3-fluoro-4-trifluoromethyl-benzyl)-methyl-amino]-pyrrolidin-1-yl}-(6-methyl-pyridin-3-yl)-methanone] |
| 14.8 | CN(Cc1ccc(C(F)(F)F)c(F)c1)[C@H]1CN(C(=O)c2ccc(C#N)nc2)C[C@@H]1c1ccc(Cl)c(Cl)c1 (racemic) [Example 26, 5-{(3SR,4RS)-3-(3,4-Dichloro-phenyl)-4-[(3-fluoro-4-trifluoromethyl-benzyl)-methyl-amino]-pyrrolidine-1-carbonyl}-pyridine-2-carbonitrile] |
| 5.7 | CN(Cc1ccc(C(F)(F)F)c(F)c1)[C@H]1CN(C(=O)c2ccc(N3CCOCC3)nc2)C[C@@H]1c1ccc(Cl)c(Cl)c1 (racemic) [Example 27, {(3SR,4RS)-3-(3,4-Dichloro-phenyl)-4-[(3-fluoro-4-trifluoromethyl-benzyl)-methyl-amino]-pyrrolidin-1-yl}-(6-morpholin-4-yl-pyridin-3-yl)-methanone] |
| 35.6 | CN(Cc1ccc(C(F)(F)F)c(F)c1)[C@H]1CN(C(=O)c2ccc(F)nc2)C[C@@H]1c1ccc(Cl)c(Cl)c1 (racemic) [Example 28, {(3SR,4RS)-3-(3,4-Dichloro-phenyl)-4-[(3-fluoro-4-trifluoromethyl-benzyl)-methyl-amino]-pyrrolidin-1-yl}-(6-fluoro-pyridin-3-yl)-methanone] |
| 8.4 | COc1ccc(C(=O)N2C[C@H](c3ccc(Cl)c(Cl)c3)[C@@H](N(C)Cc3ccc(C(F)(F)F)c(F)c3)C2)cn1 (racemic) [Example 29, {(3SR,4RS)-3-(3,4-Dichloro-phenyl)-4-[(3-fluoro-4-trifluoromethyl-benzyl)-methyl-amino]-pyrrolidin-1-yl}-(6-methoxy-pyridin-3-yl)-methanone] |
| 2.8 | CN(Cc1ccc(C(F)(F)F)c(F)c1)[C@H]1CN(C(=O)c2ccc(-n3cccn3)nc2)C[C@@H]1c1ccc(Cl)c(Cl)c1 (racemic) [Example 30, {(3SR,4RS)-3-(3,4-Dichloro-phenyl)-4-[(3-fluoro-4-trifluoromethyl-benzyl)-methyl-amino]-pyrrolidin-1-yl}-(6-pyrazol-1-yl-pyridin-3-yl)-methanone] |
| 11.1 | Cc1cc(C(=O)N2C[C@H](c3ccc(Cl)c(Cl)c3)[C@@H](N(C)Cc3ccc(C(F)(F)F)c(F)c3)C2)ccn1 (racemic) [Example 33, {(3SR,4RS)-3-(3,4-Dichloro-phenyl)-4-[(3-fluoro-4-trifluoromethyl-benzyl)-methyl-amino]-pyrrolidin-1-yl}-(2-methyl-pyridin-4-yl)-methanone] |
| 9 | CN(Cc1ccc(C(F)(F)F)c(F)c1)[C@H]1CN(C(=O)c2ccc(N3CCOCC3)cc2)C[C@@H]1c1ccc(Cl)c(Cl)c1 (racemic) [Example 38, {(3SR,4RS)-3-(3,4-Dichloro-phenyl)-4-[(3-fluoro-4-trifluoromethyl-benzyl)-methyl-amino]-pyrrolidin-1-yl}-(4-morpholin-4-yl-phenyl)-methanone] |
| 2.7 | CN(Cc1ccc(C(F)(F)F)c(F)c1)[C@H]1CN(C(=O)c2ccc(-n3cncn3)cc2)C[C@@H]1c1ccc(Cl)c(Cl)c1 (racemic) [Example 40, {(3SR,4RS)-3-(3,4-Dichloro-phenyl)-4-[(3-fluoro-4-trifluoromethyl-benzyl)-methyl-amino]-pyrrolidin-1-yl}-(4-[1,2,4]triazol-1-yl-phenyl)-methanone] |
| 10.7 | CN(Cc1ccc(C(F)(F)F)c(F)c1)[C@H]1CN(C(=O)c2ccc(-n3ccnc3)cc2)C[C@@H]1c1ccc(Cl)c(Cl)c1 (racemic) [Example 41, {(3SR,4RS)-3-(3,4-Dichloro-phenyl)-4-[(3-fluoro-4-trifluoromethyl-benzyl)-methyl-amino]-pyrrolidin-1-yl}-(4-imidazol-1-yl-phenyl)-methanone] |
| 33.5 | CN(Cc1ccc(C(F)(F)F)c(F)c1)[C@H]1CN(C(=O)c2ccc(N3CCCS3(=O)=O)cc2)C[C@@H]1c1ccc(Cl)c(Cl)c1 (racemic) [Example 42, {(3SR,4RS)-3-(3,4-Dichloro-phenyl)-4-[(3-fluoro-4-trifluoromethyl-benzyl)-methyl-amino]-pyrrolidin-1-yl}-[4-(1,1-dioxo-1-6-isothiazolidin-2-yl)-phenyl]-methanone] |
| 5.1 | CN(Cc1ccc(C(F)(F)F)c(F)c1)[C@H]1CN(C(=O)c2ccc(-c3ccccn3)cc2)C[C@@H]1c1ccc(Cl)c(Cl)c1 (racemic) [Example 43, {(3SR,4RS)-3-(3,4-Dichloro-phenyl)-4-[(3-fluoro-4-trifluoromethyl-benzyl)-methyl-amino]-pyrrolidin-1-yl}-(4-pyridin-2-yl-phenyl)-methanone] |
